Measurements taken from US6660752B2, “2,6-Substituted chroman derivatives useful as beta-3 adrenoreceptor agonists” (Bayer Pharmaceuticals Corporation, priority 2001, dated 2003).

Each compound was assayed against T1, human beta-3-adrenergic receptor (Homo sapiens, UniProt P13945) (assay: cAMP production (beta-3 agonist activity) in CHO cells stably expressing human beta-3-adrenergic receptor, cAMP SPA). Settings: CHO cells expressing full-length human beta-3-adrenergic receptor, 30 min incubation, 10 μM to 3 nM, read-out: Beta-3 Agonistic Activity: Compounds with EC50 values >1 μM.
T1 construct: stably express full-length human beta-3-adrenergic receptor; expressed in transfected cells; host or cells: Chinese hamster ovary (CHO) cells
Format: cell-based
How it was run: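 CHO cells stably expressing full-length receptor treated 30 min at 37° C with compounds (10 μM to 3 nM, 3-fold dilutions) in KRP buffer pH 7.4 with […] IBMX and 1% DMSO. Lysed cells assayed for cAMP by SPA; EC50 derived from cAMP concentration-response curves.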

T1 sequence (P13945 whole entry): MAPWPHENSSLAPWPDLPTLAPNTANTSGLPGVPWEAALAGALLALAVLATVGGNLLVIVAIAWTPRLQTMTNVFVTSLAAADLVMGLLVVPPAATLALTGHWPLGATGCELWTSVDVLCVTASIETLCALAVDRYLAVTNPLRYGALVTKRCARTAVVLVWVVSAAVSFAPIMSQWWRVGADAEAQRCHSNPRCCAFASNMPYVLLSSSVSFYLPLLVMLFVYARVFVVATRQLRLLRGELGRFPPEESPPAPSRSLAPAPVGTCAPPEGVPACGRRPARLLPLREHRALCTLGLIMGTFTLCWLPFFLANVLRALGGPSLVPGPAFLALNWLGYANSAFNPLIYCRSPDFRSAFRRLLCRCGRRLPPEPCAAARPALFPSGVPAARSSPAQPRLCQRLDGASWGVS

| EC50 | SMILES |
| --- | --- |
| > 1000 nM | Nc1ccc([C@@H](O)CNC[C@H]2CCc3cc(C(=O)N4CCC[C@H]4C(=O)O)ccc3O2)cn1 [Example 363] |
| > 1000 nM | Nc1ccc([C@@H](O)CNC[C@H]2CCc3cc(C(=O)N4CCCC[C@H]4C(=O)O)ccc3O2)cn1 [Example 364] |
| > 1000 nM | Nc1ccc([C@@H](O)CNC[C@H]2CCc3cc(C(=O)N(CC(=O)O)Cc4ccccn4)ccc3O2)cn1 [Example 365] |
| > 1000 nM | Nc1ccc([C@@H](O)CNC[C@H]2CCc3cc(C(=O)N4CCC[C@@H]4C(=O)O)ccc3O2)cn1 [Example 367] |

Same assay, conditions: CHO cells expressing full-length human beta-3-adrenergic receptor, 30 min incubation, 10 μM to 3 nM, read-out: Beta-3 Agonistic Activity: Compounds with EC50 values ≦1 μM

| SMILES | EC50 |
| --- | --- |
| O=C(Nc1ccc(Cl)cc1)NS(=O)(=O)c1ccc(-c2ccc3c(c2)CC[C@H](CNC[C@H](O)c2cccnc2)O3)cc1 [Example 340] | ≤ 1000 nM |
| COc1ccc([C@H](O)CNC[C@H]2CCc3cc(-c4ccc(C(=O)O)cc4)ccc3O2)cn1 [Example 343] | ≤ 1000 nM |
| O=C(O)c1ccc(-c2ccc3c(c2)CC[C@H](CNC[C@H](O)c2cccc(Cl)c2)O3)cc1 [Example 344, 4-[(2R)-2-({[(2R)-2-(3-chlorophenyl)-2-hydroxyethyl]amino}methyl)-3,4-dihydro-2H-chromen-6-yl]benzoic acid] | ≤ 1000 nM |
| O=C(O)c1ccc(-c2ccc3c(c2)CC[C@H](CNC[C@@H](O)c2c(F)ccc(Cl)c2F)O3)cc1 [Example 348] | ≤ 1000 nM |
| O=C(O)c1ccc(-c2ccc3c(c2)CC[C@H](CNC[C@@H](O)c2cccc(Cl)c2F)O3)cc1 [Example 352] | ≤ 1000 nM |
| Nc1ccc([C@@H](O)CNC[C@H]2CCc3cc(C(=O)NCC(=O)O)ccc3O2)cn1 [Example 362, N-{[(2R)-2-({[(2R)-2-(6-amino-3-pyridinyl)-2-hydroxyethyl]amino}methyl)-3,4-dihydro-2H-chromen-6-yl]carbonyl}glycine] | ≤ 1000 nM |
| Nc1ccc([C@@H](O)CNC[C@H]2CCc3cc(C(=O)NC4(C(=O)O)CC4)ccc3O2)cn1 [Example 366, 1-({[(2R)-2-({[(2R)-2-(6-amino-3-pyridinyl)-2-hydroxyethyl]amino}methyl)-3,4-dihydro-2H-chromen-6-yl]carbonyl}amino)cyclopropanecarboxylic acid] | ≤ 1000 nM |
| COC(=O)c1ccc(-c2ccc3c(c2)CC[C@H](CNC[C@H](O)c2ccc(N)nc2)O3)cc1 [Example 381] | ≤ 1000 nM |
| COC(=O)c1cccc(-c2ccc3c(c2)CC[C@H](CNC[C@H](O)c2ccc(N)nc2)O3)c1 [Example 382] | ≤ 1000 nM |
| Nc1ccc([C@@H](O)CNC[C@H]2CCc3cc(-c4cccc(C(=O)N5CCCC5)c4)ccc3O2)cn1 [Example 383] | ≤ 1000 nM |
| Nc1ccc([C@@H](O)CNC[C@H]2CCc3cc(-c4ccc(-c5nnn[nH]5)cc4)ccc3O2)cn1 [Example 384, (1R)-1-(6-amino-3-pyridinyl)-2-[({(2R)-6-[4-(1H-tetraazol-5-yl)phenyl]-3,4-dihydro-2H-chromen-2-yl}methyl)amino]ethanol] | ≤ 1000 nM |
| Nc1ccc([C@@H](O)CNC[C@H]2CCc3cc(-c4ccc(C(=O)O)cc4)ccc3O2)cn1 [Example 385, 4-[(2R)-2-({[(2R)-2-(6-amino-3-pyridinyl)-2-hydroxyethyl]amino}methyl)-3,4-dihydro-2H-chromen-6-yl]benzoic Acid] | ≤ 1000 nM |
| Nc1ccc([C@@H](O)CNC[C@H]2CCc3cc(-c4cccc(C(=O)O)c4)ccc3O2)cn1 [Example 386, 3-[(2R)-2-({[(2R)-2-(6-amino-3-pyridinyl)-2-hydroxyethyl]amino}methyl)-3,4-dihydro-2H-chromen-6-yl]benzoic Acid] | ≤ 1000 nM |

Now from value to compound:

| EC50 | SMILES |
| --- | --- |
| ≤ 1000 nM | O=C(Nc1ccccc1)NS(=O)(=O)c1cccc(-c2ccc3c(c2)CC[C@H](CNC[C@H](O)c2cccnc2)O3)c1 [Example 332] |
| ≤ 1000 nM | O=C(Nc1ccc(F)cc1)NS(=O)(=O)c1cccc(-c2ccc3c(c2)CC[C@H](CNC[C@H](O)c2cccnc2)O3)c1 [Example 333] |
| ≤ 1000 nM | COc1ccc(NC(=O)NS(=O)(=O)c2cccc(-c3ccc4c(c3)CC[C@H](CNC[C@H](O)c3cccnc3)O4)c2)cc1 [Example 334] |
| ≤ 1000 nM | O=C(Nc1ccc(Cl)cc1)NS(=O)(=O)c1cccc(-c2ccc3c(c2)CC[C@H](CNC[C@H](O)c2cccnc2)O3)c1 [Example 335] |
| ≤ 1000 nM | O=C(Nc1ccccc1F)NS(=O)(=O)c1cccc(-c2ccc3c(c2)CC[C@H](CNC[C@H](O)c2cccnc2)O3)c1 [Example 336] |
| ≤ 1000 nM | O=C(Nc1cccc(C(F)(F)F)c1)NS(=O)(=O)c1cccc(-c2ccc3c(c2)CC[C@H](CNC[C@H](O)c2cccnc2)O3)c1 [Example 337] |
| ≤ 1000 nM | O=C(Nc1cccc(F)c1)NS(=O)(=O)c1ccc(-c2ccc3c(c2)CC[C@H](CNC[C@H](O)c2cccnc2)O3)cc1 [Example 338] |
| ≤ 1000 nM | CC(C)NC(=O)NS(=O)(=O)c1ccc(-c2ccc3c(c2)CC[C@H](CNC[C@H](O)c2cccnc2)O3)cc1 [Example 339] |
